The results in this text go back to patent publication US10738056B2 (Aduro BioTech, Inc., priority 2017, dated 2020).

Bounds are passed on as bounds.

Assay [1] concerns the target Human cGAS amino acids 155-522 (Homo sapiens (Human), UniProt Q8N884). Nature of the assay: cGAS biochemical activity assay (ATP remaining, Kinase-Glo Max luminescence). The conditions noted are these: human cGAS 155-522, ATP remaining (Kinase-Glo Max); read-out: cGAS IC50. In general terms: In Kinase-Glo more light means more ATP remaining.
The subject of assay [2] is cGAS/STING pathway in THP1 cells. Put plainly: THP1 cell-based cGAS/STING pathway activity assay (IRF-3-linked luciferase reporter). The conditions noted are these: Homo sapiens, THP-1. An excerpt:
A cellular assay can be used to assess the compounds of the invention for their ability to inhibit the cGAS/STING pathway. Cells that express a luciferase-based reporter that is linked to IRF-3 activation are used to determine response as a function of compound concentration. Such an assay is described in Vincent et al., Nature Communications 2017, 8(1):750, doi: 10.1038/s41467-017-00833-9.
A cellular assay can be used to assess the compounds of the invention for their ability to inhibit the cGAS/STING pathway. Cells that express a luciferase-based reporter that is linked to IRF-3 activation are used to determine response as a function of compound concentration. Such an assay is described in Vincent et al., Nature Communications 2017, 8(1):750, doi: 10.1038/s41467-017-00833-9. Compounds of the invention were assessed using similar assay methods in a THP1 cell assay to generate IC50 values as provided in the following Table 16. In this table, activity level “A” indicates an IC50 value less than 20 μM, “B” indicates an IC50 value between 20 and 100 μM, and “C” indicates an IC50 value above the upper limit of the assay (100 μM), or where an IC50 value could not be generated from the data.
(In general: In a reporter assay the amount or activity of a reporter protein is the signal.)

Sequence of Human cGAS amino acids 155-522 (Q8N884 157-522): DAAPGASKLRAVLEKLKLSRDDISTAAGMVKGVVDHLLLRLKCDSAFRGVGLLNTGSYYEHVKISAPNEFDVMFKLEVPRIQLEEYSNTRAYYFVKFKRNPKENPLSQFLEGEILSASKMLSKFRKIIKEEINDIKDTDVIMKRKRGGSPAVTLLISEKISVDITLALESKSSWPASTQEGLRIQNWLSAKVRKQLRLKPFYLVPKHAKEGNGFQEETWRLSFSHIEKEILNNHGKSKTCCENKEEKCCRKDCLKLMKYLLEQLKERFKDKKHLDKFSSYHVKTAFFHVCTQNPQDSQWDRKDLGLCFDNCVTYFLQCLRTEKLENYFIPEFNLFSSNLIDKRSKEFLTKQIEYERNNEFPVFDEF

As for `COc1cccc2nc(-c3c(C)[nH]c4c(-c5ccccc5)c(C(F)(F)F)nn4c3=O)n(C)c12` [Compound C1065, 6-(7-methoxy-1-methyl-1H-benzo[d]imidazol-2-yl)-5-methyl-3-phenyl-2-(trifluoromethyl)pyrazolo[1,5-a]pyrimidin-7(4H)-one], the results for the IC50 in assay [1] and in assay [2] were 20 to 250 µM and over 100 µM, respectively.
Regarding `Cc1[nH]c2c(-c3ccccc3)c(C(F)(F)F)nn2c(=O)c1-c1nc(CO)c(C2CCCCC2)o1` [Compound C1157, 6-(5-cyclohexyl-4-(hydroxymethyl)oxazol-2-yl)-5-methyl-3-phenyl-2-(trifluoromethyl)pyrazolo[1,5-a]pyrimidin-7(4H)-one], the IC50 in assay [1] and in assay [2] was under 20 µM each time.
Consider `Cc1[nH]c2c(-c3ccccc3)c(C(F)(F)F)nn2c(=O)c1-c1nnc(N2CCCCC2)o1` [Compound D1020, 5-methyl-3-phenyl-6-(5-(piperidin-1-yl)-1,3,4-oxadiazol-2-yl)-2-(trifluoromethyl)pyrazolo[1,5-a]pyrimidin-7(4H)-one], for which the figures for the IC50 in assay [1] and in assay [2] were under 20 µM and over 100 µM, respectively.
The matching figures for `Cc1nn2c(=O)c(-c3nnc(C4CCCOC4)o3)c(C)[nH]c2c1-c1ccccc1` (stereo not shown) [Compound D1030, 2,5-dimethyl-3-phenyl-6-(5-(tetrahydro-2H-pyran-3-yl)-1,3,4-oxadiazol-2-yl)pyrazolo[1,5-a]pyrimidin-7(4H)-one]: under 20 µM and over 100 µM.
Regarding `Cc1[nH]c2c(-c3ccccc3)c(C(F)(F)F)nn2c(=O)c1C(=O)Nc1cccc2c1OC(F)(F)O2` [Compound A1062, N-(2,2-difluorobenzo[d][1,3]dioxol-4-yl)-5-methyl-7-oxo-3-phenyl-2-(trifluoromethyl)-4,7-dihydropyrazolo[1,5-a]pyrimidine-6-carboxamide], the concentration for half-maximal inhibition (IC50) in assay [1] and in assay [2] was under 20 µM in each case.
In the case of `COc1cccc2oc(-c3c(COC4CCNC4=O)[nH]c4c(-c5ccccc5)c(C(F)(F)F)nn4c3=O)nc12` (stereo not shown) [Compound C1159, 6-(4-methoxybenzo[d]oxazol-2-yl)-5-(((2-oxopyrrolidin-3-yl)oxy)methyl)-3-phenyl-2-(trifluoromethyl)pyrazolo[1,5-a]pyrimidin-7(4H)-one], the figures for the IC50 in assay [1] and in assay [2] were under 20 µM and over 100 µM, respectively.
For `Cc1[nH]c2c(-c3ccccc3)c(C(F)(F)F)nn2c(=O)c1C(=O)Nc1ncco1` [Compound A1074, 5-methyl-N-(oxazol-2-yl)-7-oxo-3-phenyl-2-(trifluoromethyl)-4,7-dihydropyrazolo[1,5-a]pyrimidine-6-carboxamide], in that order: under 20 µM and over 100 µM.
Take `Cc1[nH]c2c(-c3ccccc3)c(C(F)(F)F)nn2c(=O)c1-c1nc2c(OCCN)cccc2o1` [Compound C1061, 6-(4-(2-aminoethoxy)benzo[d]oxazol-2-yl)-5-methyl-3-phenyl-2-(trifluoromethyl)pyrazolo[1,5-a]pyrimidin-7(4H)-one]: the half-inhibitory concentration (IC50) – broadly, the concentration at which inhibition is half-maximal – in assay [1] was in the range of 20 to 250 µM; in assay [2], 20 to 100 µM.
Take `Cc1[nH]c2c(-c3ccccc3)c(C(F)(F)F)nn2c(=O)c1C(=O)Nc1cccc(N)c1` [Compound A1069, N-(3-aminophenyl)-5-methyl-7-oxo-3-phenyl-2-(trifluoromethyl)-4,7-dihydropyrazolo[1,5-a]pyrimidine-6-carboxamide]: the IC50 in assay [1] was under 20 µM; in assay [2], 20 to 100 µM.
The matching figures for `COc1nccc2oc(-c3c(C)[nH]c4c(-c5ccccc5)c(C(F)(F)F)nn4c3=O)nc12` [Compound C1037, 6-(4-methoxyoxazolo[4,5-c]pyridin-2-yl)-5-methyl-3-phenyl-2-(trifluoromethyl)pyrazolo[1,5-a]pyrimidin-7(4H)-one]: under 20 µM and under 20 µM.
The matching figures for `COc1cccnc1NC(=O)c1c(C)[nH]c2c(-c3ccccc3)c(C(F)(F)F)nn2c1=O` [Compound A1100, N-(3-methoxypyridin-2-yl)-5-methyl-7-oxo-3-phenyl-2-(trifluoromethyl)-4,7-dihydropyrazolo[1,5-a]pyrimidine-6-carboxamide]: under 20 µM and 20 to 100 µM.
